Assay: xn = mol fraction of the nth substance listed

CCCCCCCCCCCCCC + CCCCCCCC
viscosity [mPa·s]
Conditions	x1 = 0.1504	x1 = 0.3504	x1 = 0.4999	x1 = 0.6485	x1 = 0.8475	x2 = 0.367	x2 = 0.635	x2 = 0.839
293.15 K, 101.33 kPa	–	–	–	–	–	1.501	1.003	0.753
303.16 K, 101.3 kPa	0.6303	0.8589	1.056	1.276	1.612	–	–	–
308.16 K, 101.3 kPa	0.5925	0.8026	0.9789	1.176	1.476	–	–	–

CCCCCO + CCCCCCCC
viscosity [mPa·s], 101 kPa
Conditions	298.15 K	318.15 K
x1 = 0.0618	0.537	0.426
x1 = 0.1297	0.57	0.449
x1 = 0.2063	0.617	0.484
x1 = 0.2744	0.671	0.517
x1 = 0.3509	0.749	0.57
x1 = 0.5159	1.007	0.72
x1 = 0.5831	1.166	0.813
x1 = 0.6979	1.536	1.025
x1 = 0.8127	2.072	1.298
x1 = 0.9043	2.694	1.611
x1 = 0.952	3.056	1.814

CC12CC3CC(C)(C1)CC(C)(C3)C2 + CCCCCCCCC
viscosity [mPa·s], 100 kPa
Conditions	x1 = 0.1012	x1 = 0.2132	x1 = 0.3009	x1 = 0.3978	x1 = 0.4998	x1 = 0.6007	x1 = 0.6969	x1 = 0.7984	x1 = 0.8985
293.15 K	0.831	0.936	1.021	1.11	1.231	1.395	1.593	1.852	2.201
298.15 K	0.775	0.87	0.95	1.028	1.135	1.282	1.458	1.685	1.995
303.15 K	0.726	0.812	0.883	0.952	1.052	1.183	1.342	1.544	1.818
308.15 K	0.682	0.76	0.825	0.889	0.978	1.095	1.238	1.418	1.662
313.15 K	0.639	0.711	0.771	0.831	0.914	1.022	1.147	1.309	1.526
318.15 K	0.603	0.67	0.724	0.781	0.859	0.954	1.067	1.212	1.408
323.15 K	0.569	0.633	0.681	0.737	0.807	0.894	0.996	1.13	1.304

CCCCCCCC + CCCCCCCCCC
viscosity [mPa·s]
Conditions	297.95 K	298.15 K	313.05 K
101 kPa, x1 = 0.1384	0.8136	–	0.6803
101 kPa, x1 = 0.2144	0.7783	–	0.6439
101 kPa, x1 = 0.3015	0.7465	–	0.6261
101 kPa, x1 = 0.3894	0.6993	–	0.5975
101 kPa, x1 = 0.452	0.6767	–	0.5817
101 kPa, x1 = 0.601	0.6312	–	0.5417
101 kPa, x1 = 0.6988	0.5898	–	0.5129
101 kPa, x1 = 0.8208	0.5543	–	0.4761
101 kPa, x1 = 0.8858	0.5327	–	0.4643
101.33 kPa, x1 = 0.1059	–	0.8166	–
101.33 kPa, x1 = 0.2142	–	0.7747	–
101.33 kPa, x1 = 0.3038	–	0.7382	–
101.33 kPa, x1 = 0.4052	–	0.6937	–
101.33 kPa, x1 = 0.5057	–	0.6694	–
101.33 kPa, x1 = 0.6061	–	0.6305	–
101.33 kPa, x1 = 0.7032	–	0.6018	–
101.33 kPa, x1 = 0.8002	–	0.5722	–
101.33 kPa, x1 = 0.9058	–	0.5366	–

c1ccccc1 + CCCCCCCCCC
Conditions	viscosity [mPa·s]
298 K, 101 kPa, x1 = 0.5	0.6712
298.15 K, 101.33 kPa, x2 = 0.03584	0.6003
298.15 K, 101.33 kPa, x2 = 0.1004	0.5986
298.15 K, 101.33 kPa, x2 = 0.2013	0.6012
298.15 K, 101.33 kPa, x2 = 0.2902	0.613
298.15 K, 101.33 kPa, x2 = 0.3988	0.6372
298.15 K, 101.33 kPa, x2 = 0.5	0.6648
298.15 K, 101.33 kPa, x2 = 0.5943	0.6949
298.15 K, 101.33 kPa, x2 = 0.7021	0.7313
298.15 K, 101.33 kPa, x2 = 0.8353	0.7784
298.15 K, 101.33 kPa, x2 = 0.9165	0.8085
318 K, 101 kPa, x1 = 0.5	0.5262
